SMILES strings stand for the structures.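 Five concentrations, 48 hours, 96-well plates. TGI: total growth inhibition.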 Some results are limits rather than exact numbers.

Data on 15 compounds can be found in PubChem BioAssay (NCI).

Some test systems named below: SK-MEL-28 melanoma; HT29 colon; M14 melanoma; EKVX NSCLC; T-47D breast; BT-549 breast; OVCAR-3 ovarian; SK-OV-3 ovarian; SN12C renal; SF-539 CNS.
Assay in all cases: NCI-60 cell line screen, 48 h

On to `COc1ccc(N2C(=O)C3c4[nH]c5ccccc5c4C4CCC(C(C)C)CC4C3C2=O)cc1` (centres undefined), for which the TGI in the assay with SK-MEL-28 melanoma, with HT29 colon, in the assay on M14 melanoma, with EKVX NSCLC, in the assay on T-47D breast and in the assay on BT-549 breast was over 100 µM each time. The TGI with OVCAR-3 ovarian, in the assay with SK-OV-3 ovarian and with SN12C renal was over 100 µM each time.
`CN(N)C(=O)NCCCl`: the TGI with SK-MEL-28 melanoma, with HT29 colon, in the assay with M14 melanoma, in the assay with EKVX NSCLC, in the assay with BT-549 breast and with SF-539 CNS was over 100 µM throughout. The TGI with OVCAR-3 ovarian, in the assay on SK-OV-3 ovarian and in the assay with SN12C renal was over 100 µM in each case.
On to `O=C1C[C@H](c2ccccc2)C2(C(=O)c3ccccc3C2=O)[C@@H](c2ccccc2)C1`, for which the TGI in the assay with SK-MEL-28 melanoma was over 100 µM; in the assay with HT29 colon it was over 100 µM; in the assay with M14 melanoma, 95.9 µM; in the assay on T-47D breast, over 100 µM; in the assay on BT-549 breast it was 71.9 µM; in the assay with OVCAR-3 ovarian, over 100 µM. For the same compound, the TGI with SK-OV-3 ovarian and with SN12C renal was over 100 µM in each case.
`c1ccc(C(=NNc2nc3ccccc3[nH]2)c2ccccn2)nc1`: the TGI in the assay on SK-MEL-28 melanoma is over 100 µM; with HT29 colon, 12.1 µM; with M14 melanoma it was 1.84 µM; in the assay with EKVX NSCLC it was 3.38 µM; in the assay on T-47D breast, over 100 µM; in the assay on BT-549 breast, 97.9 µM. For the same compound, the TGI was 0.546 µM in the assay on SF-539 CNS, over 100 µM in the assay on OVCAR-3 ovarian and 0.828 µM in the assay with SK-OV-3 ovarian.
`Sc1nnc(-c2ccccc2Nc2ccccc2-c2nnc(S)n2-c2ccccc2)n1-c1ccccc1`: the TGI with SK-MEL-28 melanoma is 44.7 µM; in the assay with HT29 colon, over 100 µM; in the assay on M14 melanoma it was over 100 µM; with EKVX NSCLC, 97.9 µM; with T-47D breast, 88.2 µM; with BT-549 breast, over 100 µM. Moreover, the TGI is over 100 µM with SF-539 CNS, over 100 µM in the assay on OVCAR-3 ovarian and 72.9 µM in the assay on SN12C renal.
As for `CC(=O)c1ccc2c(c1)oc(=O)n2CCN(C)C`, the TGI with SK-MEL-28 melanoma, in the assay on HT29 colon, with M14 melanoma, with EKVX NSCLC, in the assay on BT-549 breast and in the assay with SF-539 CNS was over 100 µM each time. Further, the TGI in the assay with OVCAR-3 ovarian and in the assay on SK-OV-3 ovarian was over 100 µM in each case.
`CC1CCC2c3c([nH]c4ccccc34)C3C(=O)N(C4CCCCC4)C(=O)C3C2C1` (centres undefined): the TGI with SK-MEL-28 melanoma is 34.1 µM; with HT29 colon, over 100 µM; with M14 melanoma, 59.3 µM; with EKVX NSCLC, 39.6 µM; with BT-549 breast, 32.7 µM; with SF-539 CNS it was 62.6 µM. The TGI is 39.8 µM with OVCAR-3 ovarian, 42.5 µM with SK-OV-3 ovarian and over 100 µM in the assay on SN12C renal.
In the case of `O=C1Nc2ccccc2NC1C1OC(c2ccccc2)=CC1=O` (centres undefined), the TGI with SK-MEL-28 melanoma, in the assay on HT29 colon, in the assay with M14 melanoma, with EKVX NSCLC, in the assay with T-47D breast and in the assay with BT-549 breast was over 100 µM in each case. For the same compound, the TGI in the assay on SF-539 CNS, in the assay with OVCAR-3 ovarian and in the assay with SK-OV-3 ovarian was over 100 µM in each case.
For the compound `Cc1ccc(S(=O)(=Nc2ccccc2)C(C(C)C)C(C)(C)Cl)cc1` (centres undefined), the TGI was over 50 µM with HT29 colon; over 50 µM in the assay with M14 melanoma; 47.3 µM with EKVX NSCLC; over 50 µM with T-47D breast; over 50 µM in the assay on BT-549 breast; over 50 µM in the assay with SF-539 CNS. The TGI in the assay on OVCAR-3 ovarian, with SK-OV-3 ovarian and with SN12C renal was over 50 µM in each case.
In the case of `C=C1c2nc3ccccc3n2C=C(c2ccc(Cl)cc2)N1c1ccccc1`, the TGI in the assay on SK-MEL-28 melanoma was 24 µM; with M14 melanoma it was 36.4 µM; in the assay with EKVX NSCLC, 45.2 µM; with BT-549 breast, 18.8 µM; in the assay with SF-539 CNS, 25.9 µM; with OVCAR-3 ovarian it was 38.5 µM. Moreover, the TGI in the assay with SK-OV-3 ovarian was 34.7 µM; in the assay with SN12C renal it was over 100 µM.
With `O=C1C=CC2(O[C@@H](Cc3ccccc3)[C@H](Cc3ccccc3)O2)C(SC(=O)c2ccccc2)C1` (some centres undefined), the TGI in the assay on SK-MEL-28 melanoma is 3.44 µM; in the assay on HT29 colon, 3.08 µM; in the assay with M14 melanoma, 2.99 µM; in the assay on T-47D breast, 11.3 µM; with BT-549 breast, 1.11 µM; in the assay with SF-539 CNS it was 3.04 µM. In addition, the TGI stood at 2.24 µM with OVCAR-3 ovarian, 8.04 µM in the assay with SK-OV-3 ovarian and 3.97 µM in the assay on SN12C renal.
In the case of `CC(O)(c1ccccc1)c1nccc2ccccc12` (centres undefined), the TGI in the assay with SK-MEL-28 melanoma, in the assay with HT29 colon, in the assay with M14 melanoma, in the assay with T-47D breast, in the assay on BT-549 breast and in the assay with OVCAR-3 ovarian was over 100 µM throughout. Besides, the TGI in the assay with SK-OV-3 ovarian and in the assay with SN12C renal was over 100 µM in each case.
As to `Brc1cccc(C2(CCCC3(c4cccc(Br)n4)OCCO3)OCCO2)n1`, the TGI in the assay on SK-MEL-28 melanoma, in the assay on M14 melanoma, in the assay with EKVX NSCLC, in the assay on T-47D breast, in the assay on BT-549 breast and in the assay with SF-539 CNS was over 100 µM throughout. Besides, the TGI with OVCAR-3 ovarian, in the assay with SK-OV-3 ovarian and in the assay with SN12C renal was over 100 µM throughout.
Regarding `CC(C)(C)OC(=O)NC(CCCCNC(=O)OCc1ccccc1)C(=O)NC(CCCCNC(=O)OCc1ccccc1)C(=O)ON1C(=O)CCC1=O` (centres undefined), the TGI with SK-MEL-28 melanoma, with HT29 colon, with M14 melanoma, in the assay with EKVX NSCLC, with T-47D breast and in the assay with BT-549 breast was over 100 µM each time. The compound also returned a TGI with SN12C renal of over 100 µM.
On to `CC[C@@]1(O)C(=O)OCc2c1cc1n(c2=O)Cc2c-1nc1ccccc1c2/C=N\NC(=O)C(N)CS` (some centres undefined), for which the TGI was over 100 µM with SK-MEL-28 melanoma; over 100 µM in the assay on HT29 colon; 10.5 µM with M14 melanoma; over 100 µM in the assay on EKVX NSCLC; over 100 µM in the assay on BT-549 breast; 0.806 µM in the assay with SF-539 CNS. Moreover, the TGI was over 100 µM in the assay on OVCAR-3 ovarian, over 100 µM in the assay on SK-OV-3 ovarian and over 22.8 µM in the assay on SN12C renal.
